{"source": "patent US11691145B2", "about": "“Platform and method for multi-variable screening” (Wisconsin Alumni Research Foundation, priority 2018, dated 2023)", "origin": "cited, not measured here", "system": "bacterial pathogens (infection)", "settings": "phase 3 clinical trial", "data": [{"smiles": "CO/N=C(\\C(=O)N[C@@H]1C(=O)N2C(C(=O)O)=C(COC(C)=O)CS[C@H]12)c1csc(N)n1", "note": "[cefotaxime]", "values": [{"measurement": "patients who responded to the antibiotic therapy", "setting": "patients with a \"resistant\" antibiotic sensitivity test result", "value": 64, "unit": "%"}, {"measurement": "patients who would respond to the antibiotic therapy", "setting": "patients with a \"sensitive\" antibiotic sensitivity test result, best case scenario", "value": 93, "unit": "%"}]}]}
